This is an account of results in patent US20150038527A1, “FUROPYRIDINE DERIVATIVES” (Merck Patent GmbH, priority 2012, published 2015).

SMILES strings stand for the structures. A value given as a limit tells only on which side of the number the result lay.

In series [1] the test system is murine model of RA. The following applies: cited from earlier work.
In series [2] the test system is RA. The following applies: RA Phase II studies in humans; cited from earlier work.
Series [3] deals with T1, SYK (Homo sapiens, UniProt P43405).
T1 construct: 2.5 nM SYK, 400 nM Biotin-Aha-Aha-KEDPDYEWPSAKK and 10 μM ATP
In words: SYK Flash Plate Assay (enzyme assay). In kind it is biochemical.

For `COc1cc(Nc2ncc(F)c(Nc3ccc4c(n3)NC(=O)C(C)(C)O4)n2)cc(OC)c1OC` [Compound R406], in series [1], the bone erosion entry is given as “significantly reduced”, the clinical scores result was “significant improvement of clinical scores” and the serum cytokine concentrations entry was “significantly reduced serum cytokine concentrations”. In series [2], the “efficacy (ACR scores)” value was “efficacy (ACR scores improvement)” and the tolerability result is reported as “good tolerability”. On to `COc1cc(-c2cc3nccc(-c4ccc5[nH]c(=O)n(CCN)c5c4)c3o2)cc(OC)c1OC` [Compound A6, 1-(2-amino-ethyl)-6-[2-(3,4,5-trimethoxy-phenyl)-furo[3,2-b]pyridin-7-yl]-1,3-dihydro-benzoimidazol-2-one], for which the IC50 (in general, the concentration that gives 50% inhibition) in series [3] is 3 to 50 µM. `COc1cc(-c2cc3nccc(-c4cc(F)cc(C(=O)N[C@@H]5CCCC[C@@H]5N)c4)c3o2)cc(OC)c1OC` [Compound A35, N-((1R,2S)-2-amino-cyclohexyl)-3-fluoro-5-[2-(3,4,5-trimethoxy-phenyl)furo[3,2-b]pyridin-7-yl]-benzamide] had a half-inhibitory concentration (IC50) in series [3] of 0.3 to 3 µM. Same read-out and setting: under `COc1ccc(C(N)=O)cc1-c1cc2nccc(-c3ccnc(N[C@@H]4CCCC[C@@H]4N)c3)c2o1` [Compound A97, 3-{7-[2-((1R,2S)-2-amino-cyclohexylamino)-pyridin-4-yl]-furo[3,2-b]pyridin-2-yl}-4-methoxy-benzamide] stands < 0.1 µM; under `COc1ccc([C@H](C)N)cc1-c1ccnc2cc(-c3cc(OC)c(OC)c(OC)c3)oc12` [Compound A101, (S)-1-{4-methoxy-3-[2-(3,4,5-trimethoxy-phenyl)-furo[3,2-b]pyridin-7-yl]-phenyl}-ethylamine], 0.3 to 3 µM.

As to `COc1cc(-c2cc3nccc(-c4cccc(C(=O)N[C@@H]5CCCC[C@H]5O)c4)c3o2)cc(OC)c1OC` [Compound A19, N-((1R,2R)-2-hydroxy-cyclohexyl)-3-[2-(3,4,5-trimethoxy-phenyl)-furo[3,2-b]pyridin-7-yl]-benzamide], in series [3], the IC50 was in the range of 3 to 50 µM. In the case of `COc1ccc(C(N)=O)cc1-c1cc2nccc(-c3ccnc(NC4CCCCC4N)c3)c2o1` (centres unmarked) [Compound A81, 3-{7-[2-(2-amino-cyclohexylamino)-pyridin-4-yl]-furo[3,2-b]pyridin-2-yl}-4-methoxy-benzamide], the 50% inhibitory concentration (IC50) in series [3] was < 0.1 µM. Still for that read-out and setting: under `COc1ccc(C(=O)O)cc1-c1cc2nccc(-c3c(OC)cccc3OC)c2o1` [Compound A66, 3-[7-(2,6-dimethoxy-phenyl)-furo[3,2-b]pyridin-2-yl]-4-methoxy-benzoic acid] stands 0.3 to 3 µM; under `COc1ccc(C(=O)NCCCN)cc1-c1ccnc2cc(-c3cc(OC)c(OC)c(OC)c3)oc12` [Compound A58, N-(3-amino-propyl)-4-methoxy-3-[2-(3,4,5-trimethoxy-phenyl)-furo[3,2-b]pyridin-7-yl]-benzamide], 0.3 to 3 µM; under `Cc1cc(OCCN)ccc1-c1cc2nccc(-c3cccc(C(=O)N[C@@H]4CCCC[C@@H]4N)c3)c2o1` [Compound A52, N-((1R,2S)-2-amino-cyclohexyl)-3-{2-[4-(2-amino-ethoxy)-2-methyl-phenyl]-furo[3,2-b]pyridin-7-yl}-benzamide], 0.3 to 3 µM.
